# Legend:
# BBCEC monolayers [1] = details: +saponin, published value; cited from earlier work
# BBCEC monolayers [2] = test: Accumulation of ligands in BBCEC monolayers; assay type: cell-based, bovine; details: FIG. 7
# Procedure: FIG. 7 illustrates the results of experiments where the ligands p97, Lf and Tf were heated or not heated prior to the binding study. In all cases, binding experiments were conducted in the transwell apparatus as described previously, with the exception that binding was conducted at either 4° C. or at 37° C. For the 37° C. trial, a separate experiment was conducted where the ligand was boiled for 30 mins then rapidly cooled prior to administration on the transwell plates.
# FIG. 13 illustrates the transcytosis and accumulation of p97 and transferrin in BBCEC monolayers. FIG. 13a, Transcytosis experiments were performed at 37° C. (solid bars) or 4° C. (white bars). [^125I]-p97 or bovine [^125I]-holo-transferrin (1 mg/ml) was added to the upper side of the cell-covered filter. At the end of the experiment, radiolabelled proteins were measured in the lower chamber of each well by TCA precipitation (n=4). […] The surface plasmon resonance response obtained for native p97 and boiled p97 was plotted (in relative units (RU)) as a function of time; FIG. 13c, The accumulation of both proteins into BBEC cells were also measured. […] Accumulation of both denatured proteins (grey bars) was also measured at 37° C. Filters were then removed, and the radioactivity associated with the cells was quantified (n=3). […]
# [3] = In situ brain perfusion with capillary depletion; assay type: in vivo; details: mice, 10 min perfusion, 10 nM [125I]-protein (FIG. 11b)
# Procedure: FIG. 11 examines the accumulation and transcytosis of p97. FIG. 11a, of [^125I]-p97, [^125I]-BSA and [^125I]-holo-transferrin one hour after i.v. injection. The radioactivity in brain was compared between the three compounds. (n=3); FIG. 11b, Accumulation of p97 and transferrin into the mouse brain parenchyma. In situ brain perfusion was performed with human [^125I]-p97 or [^125I]-holo-transferrin at a final concentration of 10 nM via a catheter inserted in the right common carotid artery. The volume of distribution (VD) of [^125I]-proteins were obtained in the whole brain homogenate (white bars), in brain capillaries (solid bars) and in brain parenchyma (hatched bars) after isolation of the right hemisphere and capillary depletion. Results were obtained for p97 (n=10) and for holo-transferrin (n=6); FIG. 11c, Transcytosis of p97 across BBCEC monolayers. Transcytosis experiments were performed 37° C. (open circles) and 4° C. (closed circles) with BBCEC monolayers. […] Apical-to-basal and basal-to-apical transport of [^125I]-p97 (25 nM) was measured for 2 hrs at 37° C. At the end of the experiment, [^125I]-p97 was assessed in the lower or upper chambers of each well by TCA precipitation (n=4).
# A. Brain uptake and in situ brain perfusion. […] The serum and brain samples were collected and the levels of radioactivity were measured. […]
# RBE4 cells = test: Competition of [125I]-p97 binding on rat brain endothelial cells (RBE4); details: competitor 10 micromolar, 2 hrs at 4° C. (FIG. 4)
# Procedure: FIG. 4. Binding of p97 on rat brain endothelial cells. Binding p97 was performed with RBE4 that were pre-incubated 2 hrs in Ringer-Hepes. For the binding experiments, cells in 24-well microplates were incubated for 2 h at 4° C. in Ringer/Hepes in the presence of [^125I]-p97 (25 nM) and 10 micromolar concentrations of cold-p97, transferrin or lactoferin, respectively. At the end of the incubation, the cells were gently washed at 4° C. three times with 4 ml of cold-PBS. RBE4 cells were then lysed with Triton X-100 and the associated radioactivity of with cell lysates was determined.
# RBE4 cells were grown in monolayers in 24 wells plastic tissue culture flasks at 37° C. under 5% CO2 in minimum essential medium Alpha and Ham's F10 (1:1) supplemented with 10% heat inactivated fetal bovine serum. For p97 binding experiments, RBE4 cells were pre-incubated at 37° C. for 2 hrs in Ringer/Hepes. ^125I-p97 in 200 μl of Ringer/Hepes was added to RBE4 cells for 2 hrs at 4° C. in the presence or absence of high concentration of cold-p97, human holo-transferrin or human lactoferrin. After the incubation, the cells were washed 4 times with PBS and the ^125I-p97 associated with the cells was measured.
substance,measurement,setting,value
"transferrin: transferrin (Tf), iron-binding serum protein used as comparator and competitor",Kd,BBCEC monolayers [1],11 nM
same,Accumulation in BBB model cells,BBCEC monolayers [2],very little accumulation
same,Apparent VD in the brain parenchyma,[3],2.4 ml/100 g
same,Inhibition of [125I]-p97 binding to RBE4 cells,RBE4 cells,does not

# From patent US7977317B2, “Compositions and methods for modulating blood-brain barrier transport” (Raptor Pharmaceutical Inc., priority 2001, dated 2011)
